Legend:
Format in all cases: cell-based
mPTP-inactive Daoy cell = test: CellTiter-Glo cell viability inhibition, mPTP-inactive Daoy cell; conditions: Homo sapiens, Daoy cell transfected with PPIF shRNA vector
ov-NNMT NCI-H82 cell = test: CellTiter-Glo cell viability inhibition, ov-NNMT NCI-H82 cell; conditions: Homo sapiens, NCI-H82 cell overexpressing NNMT protein
From the text: (§1) The expression of NNMT protein in NCI-H82 cell was overexpressed by inserting the NNMT gene into NCI-H82 cell using a viral vector, and the NNMT protein-overexpressing NCI-H82 cell (ov-NNMT NCI-H82 cell) was obtained. The control NCI-H82 cell (Con-NCI-H82 cell) was obtained by transfecting NCI-H82 cell with empty virus vector without carrying NNMT gene. The expressing content of NNMT protein in the Con-NCI-H82 cell and ov-NNMT NCI-H82 cell was detected using Western Blot assay (as shown in FIG. 3), it could be seen from FIG. 3 that the NNMT protein was overexpressed in the ov-NNMT NCI-H82 cell compared with the expression level of NNMT protein in the Con-NCI-H82 cell.

mPTP-active Daoy cell = test: CellTiter-Glo cell viability inhibition, mPTP-active Daoy cell; conditions: Homo sapiens; Daoy cell transfected with empty virus vector; CellTiter-Glo; read-out: mPTP-active Daoy cell (IC50)
Con-NCI-H82 cell = test: CellTiter-Glo cell viability inhibition, Con-NCI-H82 cell; conditions: Homo sapiens, NCI-H82 cell transfected with empty virus vector
From the text: as §1

SMILES	IC50 (mPTP-inactive Daoy cell)	IC50 (ov-NNMT NCI-H82 cell)	IC50 (mPTP-active Daoy cell)	IC50 (Con-NCI-H82 cell)
c1ccc([P+](c2ccccc2)(c2ccccc2)c2cccc3occc23)cc1 [AB36521]	0.75 µM	1.92 µM	2.45 µM	0.47 µM
c1ccc([P+](c2ccccc2)(c2ccccc2)c2cccc3[nH]cnc23)cc1 [AB36504]	5.12 µM	10.7 µM	25.3 µM	3.38 µM
c1ccc([P+](c2ccccc2)(c2cccc3[nH]ncc23)c2cccc3[nH]ncc23)cc1 [AB35480]	6.26 µM	40.1 µM	> 50 µM	13.8 µM
c1ccc([P+](c2ccccc2)(c2ccc3cc[nH]c3c2)c2ccc3cc[nH]c3c2)cc1 [AB35437]	0.3 µM	1.21 µM	0.92 µM	0.27 µM
c1ccc([P+](c2ccccc2)(c2ccncc2)c2ccc3cc[nH]c3c2)cc1 [AB35479]	6.51 µM	25.5 µM	25.1 µM	6.36 µM
COc1ccc([P+](c2ccc(OC)cc2)(c2ccc(OC)cc2)c2cccc3[nH]ccc23)cc1 [AB35527]	0.25 µM	1.45 µM	1.21 µM	0.36 µM
c1ccc([P+](c2ccccc2)(c2cnc3cc[nH]c3c2)c2cccc3[nH]ccc23)cc1 [AB35570]	3.99 µM	11.8 µM	15.7 µM	3.34 µM
c1ccc([P+](c2ccccc2)(c2ccc3cc[nH]c3n2)c2cccc3[nH]ccc23)cc1 [AB35589]	0.36 µM	2.34 µM	1.53 µM	0.32 µM
c1ccc([P+](c2ccccc2)(c2ccccc2)c2cccc3cc[nH]c23)cc1 [AB35449]	2.44 µM	6.47 µM	7.12 µM	2.17 µM
c1ccc([P+](c2ccccc2)(c2ccccc2)c2cccc3cn[nH]c23)cc1 [AB36511]	4.03 µM	9.74 µM	13.4 µM	3.32 µM
c1ccc([P+](c2ccccc2)(c2ccc3[nH]ncc3c2)c2cccc3[nH]ccc23)cc1 [AB35580]	1.16 µM	3.66 µM	4.57 µM	0.55 µM
c1ccc([P+](c2ccccc2)(c2ccc3cc[nH]c3c2)c2ccc3nc[nH]c3c2)cc1 [AB35548]	2.64 µM	7.14 µM	8.09 µM	2.22 µM
Cn1ccc2cc([P+](c3ccccc3)(c3ccccc3)c3ccccc3)ccc21 [AB35571]	0.27 µM	1.43 µM	1.38 µM	0.19 µM
c1ccc([P+](c2ccccc2)(c2cccc3[nH]ccc23)c2cccc3cn[nH]c23)cc1 [AB36514]	1.19 µM	1.35 µM	10.2 µM	0.26 µM
Cn1ccc2c([P+](c3ccccc3)(c3ccccc3)c3ccccc3)cccc21 [AB35573]	0.24 µM	1.37 µM	1.26 µM	0.14 µM
COc1ccc([P+](c2ccc(OC)cc2)(c2ccc3[nH]ccc3n2)c2cccc3c2ccn3CCN2CCOCC2)cc1 [AB36459]	0.32 µM	2.09 µM	1.56 µM	0.48 µM
COc1ccc([P+](c2ccc(OC)cc2)(c2ccnc3c2ccn3C)c2cccc3c2cnn3C)cc1 [AB36449]	0.57 µM	5.91 µM	2.16 µM	1.49 µM
Cn1ccc2c([P+](c3ccccc3)(c3ccccc3)c3cccc4[nH]ccc34)cccc21 [AB35564]	0.05 µM	1.32 µM	0.39 µM	0.13 µM
c1ccc([P+](c2ccccc2)(c2ccccc2)c2cccc3ccoc23)cc1 [AB36536]	0.31 µM	1.89 µM	1.39 µM	0.56 µM

SMILES	IC50 (mPTP-inactive Daoy cell)	IC50 (ov-NNMT NCI-H82 cell)	IC50 (mPTP-active Daoy cell)	IC50 (Con-NCI-H82 cell)
COc1ccc([P+](c2ccc(OC)cc2)(c2ccc(OC)cc2)c2cccc3c2ccn3C)cc1 [AB36411]	0.68 µM	0.16 µM	0.52 µM	0.17 µM
COc1ccc([P+](c2ccc(OC)cc2)(c2cccc3nn(C)cc23)c2cccc3c2ccn3C)cc1 [AB36444]	0.55 µM	3.91 µM	1.99 µM	0.86 µM
Cn1ccc2c([P+](c3ccccc3)(c3ccccc3)c3cccc4[nH]ncc34)cccc21 [AB35577]	1.21 µM	4.54 µM	3.89 µM	1.08 µM
[C-]#[N+]N=P(c1ccccc1)(c1ccccc1)c1ccccc1 [SJ00004]	7.99 µM	5.32 µM	9.01 µM	5.51 µM
c1ccc([P+](c2ccccc2)(c2cnc3[nH]ccc3c2)c2cccc3[nH]ccc23)cc1 [AB35563]	0.56 µM	2.09 µM	1.51 µM	0.46 µM
COc1ccc([P+](c2ccc(OC)cc2)(c2cccc3[nH]ccc23)c2cccc3[nH]ccc23)cc1 [AB35596]	0.25 µM	1.56 µM	1.32 µM	0.25 µM
Brc1c(C[P+](c2ccccc2)(c2ccccc2)c2ccccc2)[nH]c2ccccc12 [AB36542]	3.68 µM	9.22 µM	8.37 µM	3.25 µM
c1ccc([P+](c2ccccc2)(c2ccc3[nH]ccc3c2)c2ccc3[nH]ccc3c2)cc1 [AB35451]	0.28 µM	0.96 µM	1.22 µM	0.13 µM
c1ccc([P+](c2ccccc2)(c2ccc3cc[nH]c3c2)c2ccccn2)cc1 [AB35507]	1.73 µM	3.96 µM	4.08 µM	0.78 µM
c1ccc([P+](CC[P+](c2ccccc2)(c2ccccc2)c2ccccc2)(c2ccccc2)c2ccccc2)cc1 [SJ00003]	5.18 µM	2.98 µM	4.91 µM	3.24 µM
Cn1ccc2c([P+](c3ccccc3)(c3ccccc3)c3cccc4c3cnn4C)cccc21 [AB35578]	1.45 µM	4.93 µM	3.8 µM	1.27 µM
c1ccc([P+](c2ccccc2)(c2ccc3cn[nH]c3c2)c2cccc3[nH]ccc23)cc1 [AB35581]	1.74 µM	4.81 µM	5.34 µM	1.26 µM
c1ccc([P+](c2ccccc2)(c2cccnc2)c2ccc3[nH]ccc3c2)cc1 [AB35473]	2.95 µM	12.3 µM	18.1 µM	3.27 µM
c1ccc([P+](c2ccccc2)(c2cccc3[nH]ccc23)c2cccc3[nH]ncc23)cc1 [AB35482]	0.61 µM	2.13 µM	3.97 µM	0.41 µM
c1ccc([P+](c2ccccc2)(c2ccccc2)c2ccc3cc[nH]c3c2)cc1 [AB35431]	0.65 µM	1.03 µM	2 µM	0.32 µM
c1ccc([P+](c2ccccc2)(c2ccc3[nH]ccc3c2)c2ccc3[nH]ncc3c2)cc1 [AB35529]	0.88 µM	1.87 µM	4.11 µM	0.38 µM
c1ccc([P+](c2ccccc2)(c2ccc3[nH]ccc3c2)c2cnc3[nH]ccc3c2)cc1 [AB35537]	0.79 µM	2.33 µM	2.24 µM	0.51 µM
c1ccc([P+](c2ccccc2)(c2cccc3[nH]ccc23)c2ccnc3[nH]ccc23)cc1 [AB35471]	0.81 µM	2.16 µM	4.35 µM	0.34 µM
